Assay results taken from patent US10105357B2, “Indication of antibiotic drugs for preparation of cancer inhibition pharmaceutical composition” (LAUNX BIOMEDICAL CO., LTD., priority 2014, dated 2018).
Structures can show the parent of a compound that is named as a salt. Where two headings read alike, the source gives them in different places.

Key:
[1] = tested on: AGS (Gastric Adenocarcinoma); experiment: Cell viability analysis, gastric cancer AGS; assay type: cell-based, human; conditions: Homo sapiens, 72 h
[2] = tested on: MCF7 (Mammary Gland, Adenocarcinoma); experiment: Cell viability analysis, breast cancer MCF7; assay type: cell-based, human; conditions: Homo sapiens, MCF7, 72 h
[3] = tested on: HepG2 (Hepatocellular Carcinoma); experiment: Cell viability analysis, hepatic cancer HepG2; assay type: cell-based, human; conditions: Homo sapiens, HepG2, 72 h
[4] = tested on: A549 (Lung Adenocarcinoma); experiment: Cell viability analysis, lung cancer A549; assay type: cell-based, human; conditions: Homo sapiens, A549, 72 h
[5] = tested on: LoVo (Colorectal Adenocarcinoma); experiment: Cell viability analysis, colon cancer LoVo; assay type: cell-based, human; conditions: Homo sapiens, LoVo, 72 h
cancer cell lines = experiment: Cell viability analysis (WST-1) on cancer cell lines; assay type: cell-based, human; conditions: drug 10 μM, 72 hours, WST-1; Table 3
[6] = tested on: A375 (Amelanotic Melanoma); experiment: Cell viability analysis, skin cancer A375; assay type: cell-based, human; conditions: Homo sapiens, A-375, 72 h
[7] = tested on: HL-60 (Acute Promyelocytic Leukemia); experiment: Cell viability analysis, leukemia HL-60; assay type: cell-based, human; conditions: Homo sapiens, HL-60, 72 h
[8] = tested on: PC3 (p53−) (Prostate Adenocarcinoma); experiment: Cell viability analysis, prostate cancer PC3; assay type: cell-based, human; conditions: Homo sapiens, 72 h
[9] = tested on: HCT116 (p53+) (Colorectal Carcinoma); experiment: cells; conditions: Homo sapiens, HCT-116, 72 h, read-out: cell viability (survival rate), HCT116
[10] = tested on: HeLa (Cervix Adenocarcinoma); experiment: Cell viability analysis, cervical cancer HeLa; assay type: cell-based, human; conditions: Homo sapiens, HeLa, 72 h
[11] = tested on: TSGH-8301 (Urinary Bladder Carcinoma); experiment: Cell viability analysis, bladder cancer TSGH-8301; assay type: cell-based, human; conditions: Homo sapiens, 72 h
[12] = tested on: MKN-45 (Gastric Adenocarcinoma); experiment: Cell viability analysis, gastric cancer MKN-45; assay type: cell-based, human; conditions: Homo sapiens, MKN-45, 72 h
[13] = tested on: HI650 (Lung Adenocarcinoma); experiment: Cell viability analysis, lung cancer HI650; assay type: cell-based, human; conditions: Homo sapiens, NCI-H1650, 72 h
[14] = read-out: cell viability (survival rate), AGS, drug 10 μM, 72 hours, WST-1, OD450 nm
[15] = read-out: cell viability (survival rate), MCF7, drug 10 μM, 72 hours, WST-1, OD450 nm
[16] = read-out: cell viability (survival rate), HepG2, drug 10 μM, 72 hours, WST-1, OD450 nm
[17] = read-out: cell viability (survival rate), A549, drug 10 μM, 72 hours, WST-1, OD450 nm
[18] = read-out: cell viability (survival rate), LoVo, drug 10 μM, 72 hours, WST-1, OD450 nm
[19] = read-out: cell viability (survival rate), A375, drug 10 μM, 72 hours, WST-1, OD450 nm
[20] = read-out: cell viability (survival rate), HL-60, drug 10 μM, 72 hours, WST-1, OD450 nm
[21] = read-out: cell viability (survival rate), PC3, drug 10 μM, 72 hours, WST-1, OD450 nm
[22] = read-out: cell viability (survival rate), HeLa, drug 10 μM, 72 hours, WST-1, OD450 nm
[23] = read-out: cell viability (survival rate), TSGH, drug 10 μM, 72 hours, WST-1, OD450 nm
[24] = read-out: cell viability (survival rate), MKN-45, drug 10 μM, 72 hours, WST-1, OD450 nm
[25] = read-out: cell viability (survival rate), H1650, drug 10 μM, 72 hours, WST-1, OD450 nm
[26] = drug 10 μM, 72 hours, WST-1, OD450 nm, read-out: cell viability (survival rate), AGS
[27] = drug 10 μM, 72 hours, WST-1, OD450 nm, read-out: cell viability (survival rate), MCF7
[28] = drug 10 μM, 72 hours, WST-1, OD450 nm, read-out: cell viability (survival rate), HepG2
[29] = drug 10 μM, 72 hours, WST-1, OD450 nm, read-out: cell viability (survival rate), A549
[30] = drug 10 μM, 72 hours, WST-1, OD450 nm, read-out: cell viability (survival rate), A375
[31] = drug 10 μM, 72 hours, WST-1, OD450 nm, read-out: cell viability (survival rate), HL-60
[32] = drug 10 μM, 72 hours, WST-1, OD450 nm, read-out: cell viability (survival rate), PC3
[33] = drug 10 μM, 72 hours, WST-1, OD450 nm, read-out: cell viability (survival rate), HeLa
[34] = drug 10 μM, 72 hours, WST-1, OD450 nm, read-out: cell viability (survival rate), TSGH
[35] = drug 10 μM, 72 hours, WST-1, OD450 nm, read-out: cell viability (survival rate), MKN-45
[36] = drug 10 μM, 72 hours, WST-1, OD450 nm, read-out: cell viability (survival rate), H1650
[37] = read-out: cell viability (survival rate), AGS
[38] = read-out: cell viability (survival rate), MCF7
[39] = read-out: cell viability (survival rate), A549
[40] = read-out: cell viability (survival rate), LoVo
[41] = read-out: cell viability (survival rate), A375
[42] = read-out: cell viability (survival rate), HL-60
[43] = read-out: cell viability (survival rate), PC3
[44] = read-out: cell viability (survival rate), HeLa
[45] = read-out: cell viability (survival rate), TSGH
[46] = read-out: cell viability (survival rate), MKN-45
[47] = read-out: cell viability (survival rate), H1650

Structure (SMILES)	viability at 10 µM [1, 14] [%]	viability at 10 µM [2, 15] [%]	viability at 10 µM [3, 16] [%]	viability at 10 µM [4, 17] [%]	viability at 10 µM [5, 18] [%]	inhibition effect on different cancer cell lines (cancer cell lines)	viability at 10 µM [6, 19] [%]	viability at 10 µM [7, 20] [%]	viability at 10 µM [8, 21] [%]	viability at 10 µM [9] [%]	viability at 10 µM [10, 22] [%]	viability at 10 µM [11, 23] [%]	viability at 10 µM [12, 24] [%]	viability at 10 µM [13, 25] [%]	viability at 10 µM [1, 26] [%]	viability at 10 µM [2, 27] [%]	viability at 10 µM [3, 28] [%]	viability at 10 µM [4, 29] [%]	viability at 10 µM [6, 30] [%]	viability at 10 µM [7, 31] [%]	other results
CCc1c(Cl)c(O)c(Cl)c(O)c1C(=O)O[C@H]1[C@H](O)[C@H](OC)[C@H](OC/C2=C\C=C\C[C@H](O)/C(C)=C/[C@H](CC)[C@@H](O[C@@H]3OC(C)(C)[C@@H](OC(=O)C(C)C)[C@H](O)[C@@H]3O)/C(C)=C/C(C)=C/C[C@@H]([C@@H](C)O)OC2=O)O[C@@H]1C [Fidaxomicin]	94.9	46.6	99.6	40.6	89.6	significant inhibition effect	70.3	99.2	59.4	102	82.2	82.4	94.2	61.2							
CN1CCN(c2cc3c(cc2F)c(=O)c(C(=O)O)cn3-c2ccc(F)cc2)CC1 [Difloxacin HCl]					95.7	significant inhibition effect				96.7					82.9	52.3	71.2	64.5	58.5	77	viability at 10 µM [8, 32]: 77.3%; viability at 10 µM [10, 33]: 130%; viability at 10 µM [11, 34]: 52%; viability at 10 µM [12, 35]: 79.4%; viability at 10 µM [13, 36]: 77.5%
CN(C)c1ccc(O)c2c1C[C@H]1C[C@H]3[C@H](N(C)C)C(O)=C(C(N)=O)C(=O)[C@@]3(O)C(O)=C1C2=O [Minocycline HCl]	87.6	49.9	103	42.5	87.3	significant inhibition effect	81.6	68.1	53.8	105		60.4	95	74							
Cl.NCCc1ccc(O)c(O)c1 [Dopamine hydrochloride (Inotropin), Dopamine hydrochloride]						significant inhibition effect				90.6											viability at 10 µM [1, 37]: 74.3%; viability at 10 µM [2, 38]: 148%; viability at 10 µM [4, 39]: 102%; viability at 10 µM [5, 40]: 84.3%; viability at 10 µM [6, 41]: 83%; viability at 10 µM [7, 42]: 91.5%; viability at 10 µM [8, 43]: 115%; viability at 10 µM [10, 44]: 85.1%; viability at 10 µM [11, 45]: 57.7%; viability at 10 µM [12, 46]: 85%; viability at 10 µM [13, 47]: 76%
CO[C@@]1(NC(=O)C(C(=O)O)c2ccc(O)cc2)C(=O)N2C(C(=O)O)=C(CSc3nnnn3C)CO[C@@H]21 (stereo partly drawn) [Moxalactam Disodium]	76.9	80.7	79.1	76.6	94	significant inhibition effect	80.8		95	73.9	61.3	55.9	110	66.9							
CCn1nc(C(=O)O)c(=O)c2cc3c(cc21)OCO3 [Cinoxacin]	83.2	74.9	69.7	74.2	97	significant inhibition effect	68.3	109	87	66.2	64	71.5	98.9	67.1							
CCCCCCCCCCCCCCCC[n+]1ccccc1 [Cetylpyridinium Chloride]										33.6											viability at 10 µM [1, 37]: 33.4%; viability at 10 µM [2, 38]: 40.9%; viability at 10 µM ([3]; read-out: cell viability (survival rate), HepG2): 60.9%; viability at 10 µM [4, 39]: 29.2%; viability at 10 µM [5, 40]: 50.7%; viability at 10 µM [6, 41]: 35.6%; viability at 10 µM [7, 42]: 30.8%; viability at 10 µM [8, 43]: 37.1%; viability at 10 µM [10, 44]: 37.1%; viability at 10 µM [11, 45]: 37.2%; viability at 10 µM [12, 46]: 47.4%; viability at 10 µM [13, 47]: 48.7%
CC(C)(O/N=C(\C(=O)N[C@@H]1C(=O)N2C(C(=O)[O-])=C(C[n+]3ccccc3)CS[C@H]12)c1csc(N)n1)C(=O)O [Ceftazidime Pentahydrate]					72.5	significant inhibition effect				89.5					53.5	35.5	93.6	26.7	87.7	89.3	viability at 10 µM [8, 32]: 38.5%; viability at 10 µM [10, 33]: 70%; viability at 10 µM [11, 34]: 78.7%; viability at 10 µM [12, 35]: 94.6%; viability at 10 µM [13, 36]: 58.5%
NC[C@H]1O[C@H](O[C@H]2[C@H](O)[C@@H](O[C@H]3O[C@H](CO)[C@@H](O)[C@H](N)[C@H]3O)[C@H](N)C[C@@H]2N)[C@H](N)[C@@H](O)[C@@H]1O [Bekanamycin]					96.9	significant inhibition effect				73.6					81.7	57.5	85.3	58.3	55.5	96.8	viability at 10 µM [8, 32]: 76.3%; viability at 10 µM [10, 33]: 95.2%; viability at 10 µM [11, 34]: 76.2%; viability at 10 µM [12, 35]: 74.5%; viability at 10 µM [13, 36]: 80.8%
NC(CO)(CO)CO [Trometamol]	78.1	98.8	96.7	79.5	68		126	91.3	97	90.4	90.9	102	88.3	95.4							
